# Reference: patent US11382915B2, “Treatment of focal segmental glomerulosclerosis with CCR2 antagonists” (CHEMOCENTRYX, INC., priority 2017, dated 2022)
# What was measured:
# CCR1 = target: T1, CCR1 (Homo sapiens, UniProt P32246); test: CCR1 Monocyte Chemotaxis; format: cell-based; conditions: read-out: Potency (IC50), CCR1
# T1 construct: Human monocytes and neutrophils were isolated from healthy volunteers; host or cells: primary human monocytes
# Method: (§1) Chemotaxis, calcium mobilization, and radio-ligand binding assays were conducted as previously described (Sullivan et al, 2013; Walters et al, 2010). Inhibition values (IC50) were calculated using non-linear regression with a one-site competition model (GraphPad Prism, GraphPad Software, La Jolla, Calif.). A2 values for assessment of potency in chemotaxis assays denotes the concentration of the antagonist required to right-shift by 2-fold the chemokine dose-response curve. […] Urinary albumin was measured by ELISA (Bethyl Labs, Montgomery, Tex.). Urinary and serum creatinine was measured by LC-MS/MS at ChemoCentryx. The urinary albumin excretion rate (UAER) was calculated as micrograms per 24 h. Blood urea nitrogen (BUN) was measured by Antech Diagnostics (Morrisville, N.C.). The albumin to creatinine ratio (ACR) was calculated as micrograms of albumin per milligram of creatinine.
# CCR4 = target: T2, CCR4 (Homo sapiens, UniProt P51679); test: CCR4 Activated Lymphocyte Calcium Mobilization; format: cell-based; conditions: read-out: Potency (IC50), CCR4
# T2 construct: endogenous in cells
# T2 sequence (P51679 whole entry): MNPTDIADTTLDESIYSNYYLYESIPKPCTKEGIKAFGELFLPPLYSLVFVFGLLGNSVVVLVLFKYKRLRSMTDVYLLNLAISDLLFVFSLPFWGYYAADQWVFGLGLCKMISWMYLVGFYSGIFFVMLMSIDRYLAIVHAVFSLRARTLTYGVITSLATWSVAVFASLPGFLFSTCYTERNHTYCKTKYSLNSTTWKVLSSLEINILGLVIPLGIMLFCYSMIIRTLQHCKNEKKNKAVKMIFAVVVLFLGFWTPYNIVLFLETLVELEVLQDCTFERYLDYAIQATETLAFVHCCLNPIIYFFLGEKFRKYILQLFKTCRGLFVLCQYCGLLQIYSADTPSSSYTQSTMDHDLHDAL
# Method: as §1
# CXCR6 = target: T3, CXCR6 (Homo sapiens, UniProt O00574); test: CXCR6 Activated Lymphocyte Buffer Chemotaxis; format: cell-based; conditions: read-out: Potency (IC50), CXCR6
# T3 construct: endogenous in cells
# T3 sequence (O00574 whole entry): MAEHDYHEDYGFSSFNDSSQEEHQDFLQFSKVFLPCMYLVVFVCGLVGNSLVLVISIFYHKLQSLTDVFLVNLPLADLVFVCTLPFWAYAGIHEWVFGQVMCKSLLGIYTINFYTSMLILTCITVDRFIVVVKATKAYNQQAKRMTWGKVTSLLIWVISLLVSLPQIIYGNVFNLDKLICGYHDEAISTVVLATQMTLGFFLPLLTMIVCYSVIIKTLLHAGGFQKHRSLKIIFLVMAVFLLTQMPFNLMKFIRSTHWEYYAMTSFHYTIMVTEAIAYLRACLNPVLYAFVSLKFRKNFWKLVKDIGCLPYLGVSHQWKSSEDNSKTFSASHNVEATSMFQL
# Method: as §1
# [1] = tested on: kidneys of 5/6 nephrectomized mice; test: Histological analysis of kidneys from the 5/6 nephrectomy model; format: in vivo
# Method: 5/6 nephrectomy mice on the 129X1/SvJ background were obtained from Jackson Laboratories, and were received at ChemoCentryx after the surgery was performed at JAX. Under isoflurane anesthesia, two-thirds of the left kidney mass was removed at 5-6 weeks of age. Then, after 7 to 10 days, a right unilateral nephrectomy was performed. The mice were fed a standard chow and had free access to water. Three weeks after the 5/6 nephrectomy, the mice were grouped to ensure a similar starting UAER in each treatment group. […] The RAAS blocker candesartan (AK Scientific, Union City, Calif.) and its vehicle were dosed orally once daily at 5 mg/kg formulated in water. […] The mice were housed individually in metabolic cages for quantitative collection of urinary albumin and creatinine.
# The kidneys were collected, fixed in formalin, embedded in paraffin, and cut into 5-μm-thick sections. […] Glomerular hypertrophy, mesangial expansion, glomerular sclerosis, and tubular structure were determined by examination of sections by an observer blinded to the treatment groups.
# Fixed kidney sections were obtained from 5/6 nephrectomized mice for pathology. The sections were stained and evaluated to determine whether the Compound 1-mediated improvements in renal function were associated with anatomical changes.
# CXCR7 = target: T4, CXCR7 (Homo sapiens, UniProt P25106); test: 293-CXCR7 Radio-ligand Binding; conditions: read-out: Potency (IC50), CXCR7
# T4 construct: expressed in transfected cells; host or cells: 293
# T4 sequence (P25106 whole entry): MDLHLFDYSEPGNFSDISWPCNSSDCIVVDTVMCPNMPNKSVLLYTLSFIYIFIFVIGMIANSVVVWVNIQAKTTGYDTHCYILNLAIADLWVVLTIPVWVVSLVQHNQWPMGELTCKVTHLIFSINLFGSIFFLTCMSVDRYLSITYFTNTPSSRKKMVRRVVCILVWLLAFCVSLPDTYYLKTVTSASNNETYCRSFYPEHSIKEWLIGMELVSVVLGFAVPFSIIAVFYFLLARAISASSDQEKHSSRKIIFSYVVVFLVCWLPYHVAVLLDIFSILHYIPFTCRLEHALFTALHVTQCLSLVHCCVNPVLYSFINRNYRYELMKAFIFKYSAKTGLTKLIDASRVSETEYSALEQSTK
# Method: as §1
# CCR7 = target: T5, CCR7 (Homo sapiens, UniProt P32248); test: CCR7 Activated Lymphocyte Calcium Mobilization; format: cell-based; conditions: read-out: Potency (IC50), CCR7
# T5 construct: endogenous in cells
# T5 sequence (P32248 25-378): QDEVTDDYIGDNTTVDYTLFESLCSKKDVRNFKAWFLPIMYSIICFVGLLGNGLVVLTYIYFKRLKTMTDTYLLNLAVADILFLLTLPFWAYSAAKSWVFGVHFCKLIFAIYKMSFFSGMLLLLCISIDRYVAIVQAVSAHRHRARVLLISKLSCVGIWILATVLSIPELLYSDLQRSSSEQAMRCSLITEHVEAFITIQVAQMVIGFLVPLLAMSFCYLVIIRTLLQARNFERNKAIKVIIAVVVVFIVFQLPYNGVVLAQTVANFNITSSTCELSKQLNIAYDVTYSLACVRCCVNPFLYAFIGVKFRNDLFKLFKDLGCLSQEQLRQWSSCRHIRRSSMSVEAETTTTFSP
# Method: as §1
# CCR2 [2] = target: T6, CCR2 (Mus musculus, UniProt P51683); test: Inhibition of radio-labeled mJE (CCL2) binding to WEHI-274 cells; conditions: WEHI-274 murine monocyte cell line endogenously expressing CCR2
# T6 construct: WEHI-274 murine monocyte cell line that endogenously expresses CCR2; host or cells: WEHI-274.1
# Method: as §1
# CCR8 = target: T7, CCR8 (Homo sapiens, UniProt P51685); test: 293-CCR8 Calcium Mobilization; format: cell-based; conditions: read-out: Potency (IC50), CCR8
# T7 construct: expressed in transfected cells; host or cells: 293
# Method: as §1
# [3] = tested on: Adriamycin challenged mice; test: Adriamycin induced FSGS model; format: in vivo; conditions: for UAER: Adriamycin nephropathy model, Compound 1 90 mg/kg s.c. once daily, RAAS blocker 5 mg/kg orally once daily
# Method: These experiments were performed using female Balb/c mice (Jackson Laboratories, Bar Harbor, Me.). The mice were kept on standard chow and had free access to water. At age of 10 weeks, 7.5 mg/kg Adriamycin (Selleck Chemicals, Houston, Tex.) or saline (control) was injected via tail vein in isoflurane-anesthetized animals (day 0). […] The RAAS blocker Candesartan (AK Scientific, Union City, Calif.) and its vehicle were dosed orally once daily at 5 mg/kg, formulated in water. All dosing started 2 hours prior Adriamycin challenge. The mice were housed individually in metabolic cages for quantitative collection of urinary albumin and creatinine. Chemotaxis, calcium mobilization, and radio-ligand binding assays were conducted as previously described (Sullivan et al, 2013; Walters et al, 2010). Inhibition values (IC50) were calculated using non-linear regression with a one-site competition model (GraphPad Prism, GraphPad Software, La Jolla, Calif.). A2 values for assessment of potency in chemotaxis assays denotes the concentration of the antagonist required to right-shift by 2-fold the chemokine dose-response curve. […] Urinary albumin was measured by ELISA (Bethyl Labs, Montgomery, Tex.). Urinary and serum creatinine was measured by LC-MS/MS at ChemoCentryx. The urinary albumin excretion rate (UAER) was calculated as micrograms per 24 h. Blood urea nitrogen (BUN) was measured by Antech Diagnostics (Morrisville, N.C.). The albumin to creatinine ratio (ACR) was calculated as micrograms of albumin per milligram of creatinine. […] Adriamycin is an oncolytic antibiotic that induces proteinuria and glomerulosclerosis in rodents after a single infusion. […] The level of protection was equal to or better than that of RAAS blockade.
# CCR2 [4] = target: T8, CCR2 (Homo sapiens, UniProt P41597); test: CCR2 ThP1 Cell Chemotaxis; format: cell-based; conditions: read-out: Potency (IC50), CCR2
# T8 construct: cell lines that either endogenously expressed certain chemokine receptors; host or cells: ThP1
# T8 sequence (P41597 1-360 isoform P41597-2): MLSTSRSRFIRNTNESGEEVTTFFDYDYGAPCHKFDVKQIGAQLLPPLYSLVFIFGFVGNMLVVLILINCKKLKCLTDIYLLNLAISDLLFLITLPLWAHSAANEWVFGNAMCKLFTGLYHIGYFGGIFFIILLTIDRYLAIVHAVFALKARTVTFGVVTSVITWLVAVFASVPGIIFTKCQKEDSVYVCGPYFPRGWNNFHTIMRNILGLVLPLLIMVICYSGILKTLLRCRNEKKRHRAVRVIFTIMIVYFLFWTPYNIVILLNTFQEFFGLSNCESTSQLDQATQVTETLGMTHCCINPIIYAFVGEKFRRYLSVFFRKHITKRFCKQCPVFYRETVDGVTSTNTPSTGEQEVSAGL
# Method: as §1
# CXCR5 = target: T9, CXCR5 (Homo sapiens, UniProt P32302); test: Baf3-CXCR5 Calcium Mobilization; format: cell-based; conditions: read-out: Potency (IC50), CXCR5
# T9 construct: expressed in transfected cells; host or cells: Baf3
# Method: as §1
# CCR6 = target: T10, CCR6 (Homo sapiens, UniProt P51684); test: CCR6 Activated Lymphocyte Calcium Mobilization; format: cell-based; conditions: read-out: Potency (IC50), CCR6
# T10 construct: endogenous in cells
# Method: as §1
# CXCR3 = target: T11, CXCR3 (Homo sapiens, UniProt P49682); test: CXCR3 Activated Lymphocyte Calcium Mobilization; format: cell-based; conditions: read-out: Potency (IC50), CXCR3
# T11 construct: endogenous in cells
# T11 sequence (P49682 whole entry): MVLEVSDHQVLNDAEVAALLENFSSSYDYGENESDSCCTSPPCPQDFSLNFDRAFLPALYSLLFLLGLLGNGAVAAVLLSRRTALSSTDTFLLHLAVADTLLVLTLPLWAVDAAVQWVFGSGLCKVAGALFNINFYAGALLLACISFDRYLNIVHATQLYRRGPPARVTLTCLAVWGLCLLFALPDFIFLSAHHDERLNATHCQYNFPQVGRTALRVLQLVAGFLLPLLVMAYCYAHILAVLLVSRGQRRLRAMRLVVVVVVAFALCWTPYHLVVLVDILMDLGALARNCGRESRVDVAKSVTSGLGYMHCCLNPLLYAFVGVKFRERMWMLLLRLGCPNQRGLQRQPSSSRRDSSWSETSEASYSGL
# Method: as §1
# CCR3 = target: T12, CCR3 (Homo sapiens, UniProt P51677); test: 293-CCR3 Calcium Mobilization; format: cell-based; conditions: read-out: Potency (IC50), CCR3
# T12 construct: expressed in transfected cells; host or cells: 293
# T12 sequence (P51677 whole entry): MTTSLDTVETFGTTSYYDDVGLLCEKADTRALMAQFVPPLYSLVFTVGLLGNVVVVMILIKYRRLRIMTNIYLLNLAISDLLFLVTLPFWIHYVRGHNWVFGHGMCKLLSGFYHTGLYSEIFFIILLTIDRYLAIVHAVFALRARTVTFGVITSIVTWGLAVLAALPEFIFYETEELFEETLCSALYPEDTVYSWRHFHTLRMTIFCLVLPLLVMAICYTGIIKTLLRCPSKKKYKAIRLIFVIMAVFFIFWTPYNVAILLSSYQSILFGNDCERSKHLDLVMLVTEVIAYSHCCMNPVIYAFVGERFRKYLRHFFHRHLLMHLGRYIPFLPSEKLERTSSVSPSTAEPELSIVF
# Method: as §1
# CCR9 = target: T13, CCR9 (Homo sapiens, UniProt P51686); test: CCR9 Molt4 Serum Chemotaxis; format: cell-based; conditions: read-out: Potency (IC50), CCR9
# T13 construct: cell lines that either endogenously expressed certain chemokine receptors; endogenous in cells; host or cells: Molt4
# Method: as §1
# CXCR1 = target: T14, CXCR1 (Homo sapiens, UniProt P25024); test: CXCR1 Neutrophil Calcium Mobilization; format: cell-based; conditions: read-out: Potency (IC50), CXCR1
# T14 construct: Human monocytes and neutrophils were isolated from healthy volunteers; host or cells: primary human neutrophils
# Method: as §1
# CXCR2 = target: T15, CXCR2 (Homo sapiens, UniProt P25025); test: CXCR2 Neutrophil Calcium Mobilization; format: cell-based; conditions: read-out: Potency (IC50), CXCR2
# T15 construct: Human monocytes and neutrophils were isolated from healthy volunteers; host or cells: primary human neutrophils
# T15 sequence (P25025 whole entry): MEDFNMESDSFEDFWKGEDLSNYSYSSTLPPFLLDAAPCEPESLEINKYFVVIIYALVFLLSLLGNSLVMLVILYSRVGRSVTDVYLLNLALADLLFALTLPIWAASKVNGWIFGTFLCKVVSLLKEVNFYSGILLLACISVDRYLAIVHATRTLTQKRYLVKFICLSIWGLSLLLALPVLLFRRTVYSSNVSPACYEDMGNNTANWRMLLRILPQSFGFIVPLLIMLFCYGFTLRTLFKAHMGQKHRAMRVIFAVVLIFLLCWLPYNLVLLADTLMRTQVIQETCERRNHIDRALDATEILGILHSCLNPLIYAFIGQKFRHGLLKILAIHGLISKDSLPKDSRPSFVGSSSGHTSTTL
# Method: as §1
# C3aR = target: T16, C3aR (Homo sapiens, UniProt Q16581); test: C3aR Neutrophil Calcium Mobilization; format: cell-based; conditions: read-out: Potency (IC50), C3aR
# T16 construct: Human monocytes and neutrophils were isolated from healthy volunteers; host or cells: primary human neutrophils
# T16 sequence (Q16581 whole entry): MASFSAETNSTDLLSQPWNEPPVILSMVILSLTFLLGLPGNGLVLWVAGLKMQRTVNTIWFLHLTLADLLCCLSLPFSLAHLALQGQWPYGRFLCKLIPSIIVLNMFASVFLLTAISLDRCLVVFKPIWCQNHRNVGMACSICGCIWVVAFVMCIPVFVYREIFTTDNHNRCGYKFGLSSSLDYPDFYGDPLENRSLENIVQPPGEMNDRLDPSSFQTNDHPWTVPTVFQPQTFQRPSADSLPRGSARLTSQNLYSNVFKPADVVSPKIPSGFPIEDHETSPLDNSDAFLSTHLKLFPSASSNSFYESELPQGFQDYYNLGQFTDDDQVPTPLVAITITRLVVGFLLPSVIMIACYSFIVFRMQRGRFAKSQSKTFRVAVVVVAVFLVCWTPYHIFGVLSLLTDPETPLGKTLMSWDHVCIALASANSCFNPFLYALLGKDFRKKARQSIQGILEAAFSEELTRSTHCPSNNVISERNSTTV
# Method: as §1
# CCR10 = target: T17, CCR10 (Homo sapiens, UniProt P46092); test: 293-CCR10 Calcium Mobilization; format: cell-based; conditions: read-out: Potency (IC50), CCR10
# T17 construct: expressed in transfected cells; host or cells: 293
# T17 sequence (P46092 whole entry): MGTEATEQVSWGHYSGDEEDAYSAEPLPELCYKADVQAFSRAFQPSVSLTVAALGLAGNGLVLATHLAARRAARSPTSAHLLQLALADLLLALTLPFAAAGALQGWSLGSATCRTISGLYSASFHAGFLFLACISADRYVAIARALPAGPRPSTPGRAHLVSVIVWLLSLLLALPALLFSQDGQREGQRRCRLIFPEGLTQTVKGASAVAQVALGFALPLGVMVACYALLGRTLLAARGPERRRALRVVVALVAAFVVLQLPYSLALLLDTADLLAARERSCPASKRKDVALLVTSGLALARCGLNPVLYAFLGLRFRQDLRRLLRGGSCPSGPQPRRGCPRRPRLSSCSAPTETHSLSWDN
# Method: as §1
# C5aR = target: T18, C5aR (Homo sapiens, UniProt P21730); test: C5aR Neutrophil Calcium Mobilization; format: cell-based; conditions: read-out: Potency (IC50), C5aR
# T18 construct: Human monocytes and neutrophils were isolated from healthy volunteers; host or cells: primary human neutrophils
# T18 sequence (P21730 whole entry): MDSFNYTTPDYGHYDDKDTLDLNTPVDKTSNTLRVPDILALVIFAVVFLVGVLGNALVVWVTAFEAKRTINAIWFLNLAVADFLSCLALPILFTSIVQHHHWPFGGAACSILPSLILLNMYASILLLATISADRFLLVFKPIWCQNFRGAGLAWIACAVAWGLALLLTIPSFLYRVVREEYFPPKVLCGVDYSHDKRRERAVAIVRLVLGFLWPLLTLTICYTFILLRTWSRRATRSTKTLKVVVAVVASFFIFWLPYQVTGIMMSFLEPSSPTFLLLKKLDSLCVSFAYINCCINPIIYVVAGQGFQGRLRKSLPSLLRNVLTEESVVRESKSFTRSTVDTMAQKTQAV
# Method: as §1
# [5] = tested on: partially nephrectomized mice; test: 5/6 nephrectomy model; format: in vivo; design: reduction in UACR / UACR reduction vs vehicle: concentration or dose not given beside the values; conditions: for reduction in UACR: mono-therapy
# Method: 5/6 nephrectomy mice on the 129X1/SvJ background were obtained from Jackson Laboratories, and were received at ChemoCentryx after the surgery was performed at JAX. Under isoflurane anesthesia, two-thirds of the left kidney mass was removed at 5-6 weeks of age. Then, after 7 to 10 days, a right unilateral nephrectomy was performed. The mice were fed a standard chow and had free access to water. Three weeks after the 5/6 nephrectomy, the mice were grouped to ensure a similar starting UAER in each treatment group. […] The RAAS blocker candesartan (AK Scientific, Union City, Calif.) and its vehicle were dosed orally once daily at 5 mg/kg formulated in water. Sparsentan, the dual-acting receptor antagonist for endothelin (A type) and angiotensin II receptors (Type 1) (Murugesan et al, 2005) was synthesized at ChemoCentryx and was dosed orally twice daily at 90 mg/kg formulated in 1% HPMC. The mice were housed individually in metabolic cages for quantitative collection of urinary albumin and creatinine.
# as §1
# To corroborated the above findings, another FSGS model mechanistically distinct from the Adriamycin approach was tested, the 5/6 nephrectomy model. Beginning three weeks after the completion of surgery, the mice were treated with Compound 1 or RAAS blocker either alone or in combination. As above, renal function was quantified by measuring the UACR, UAER serum creatinine and BUN levels.
# [6] = Mouse pharmacokinetic (PK) study; format: in vivo; conditions: male, 129s, plasma, sc, mice, single s.c. injection at 90 mg/kg, 24 hours post-dosing
# Method: Blood was drawn at 0.5, 2, […], 4, 8, 12, and 24 hours post-dosing. Compound 1 drug level was analyzed by LC-MS/MS at ChemoCentryx with plasma samples.
# To determine if Compound 1 was suitable for in vivo experiments, we analyzed its pharmacokinetic profile in mice.
# CXCR4 = target: T19, CXCR4 (Homo sapiens, UniProt P61073); test: CXCR4 Activated Lymphocyte Calcium Mobilization; format: cell-based; conditions: read-out: Potency (IC50), CXCR4
# T19 construct: endogenous in cells
# T19 sequence (P61073 whole entry): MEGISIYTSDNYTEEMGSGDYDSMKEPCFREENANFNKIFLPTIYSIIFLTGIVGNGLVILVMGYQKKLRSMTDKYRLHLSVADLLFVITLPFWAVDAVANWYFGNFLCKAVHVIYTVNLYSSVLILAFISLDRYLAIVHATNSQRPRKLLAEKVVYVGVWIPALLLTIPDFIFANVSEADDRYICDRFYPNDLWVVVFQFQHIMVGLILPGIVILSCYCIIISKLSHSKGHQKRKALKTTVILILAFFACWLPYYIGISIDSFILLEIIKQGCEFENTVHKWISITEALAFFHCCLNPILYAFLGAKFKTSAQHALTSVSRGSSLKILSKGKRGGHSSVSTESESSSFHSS
# Method: as §1
# T1 sequence (P32246 whole entry): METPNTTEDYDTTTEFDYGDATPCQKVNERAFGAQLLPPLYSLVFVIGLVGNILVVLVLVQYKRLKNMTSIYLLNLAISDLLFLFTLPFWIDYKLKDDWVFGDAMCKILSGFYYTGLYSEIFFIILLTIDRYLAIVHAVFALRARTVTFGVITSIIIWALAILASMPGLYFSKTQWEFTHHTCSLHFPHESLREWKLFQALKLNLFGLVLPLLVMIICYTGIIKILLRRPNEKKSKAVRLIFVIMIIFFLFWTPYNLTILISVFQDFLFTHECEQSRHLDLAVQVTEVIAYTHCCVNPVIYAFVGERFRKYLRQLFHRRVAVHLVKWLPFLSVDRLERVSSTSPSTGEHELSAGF
compound,measurement,setting,value
Cc1cnc(C(=O)c2ccnc3[nH]ccc23)c(NS(=O)(=O)c2ccc(Cl)c(C(F)(F)F)c2)c1 [Compound 1],IC50,CCR1,> 10 µM
same,IC50,CCR4,> 10 µM
same,IC50,CXCR6,> 10 µM
same,"kidney histology at 400× magnification (glomeruli), in words",[1],"decreased glomerular sclerosis, mesangial expansion, hyaline deposits and tubular collapse"
same,"kidney histology at 100× magnification, in words",[1]; with respect to vehicle control,reductions in tubular dilation and hyaline deposits
same,IC50,CXCR7,> 10 µM
same,IC50,CCR7,> 10 µM
same,IC50,CCR2 [2],0.27 µM
same,IC50,CCR8,> 10 µM
same,UAER,[3]; Week 1,"26.15, p = 0.06 mg/day"
same,UAER,[3]; Week 2,"24.19, p = 0.032 mg/day"
same,"UAER, in words",[3]; Adriamycin treated mice,significant reduction
same,IC50,CCR2 [4],0.0005 µM
same,IC50,CXCR5,> 10 µM
same,IC50,CCR6,> 8 µM
same,IC50,CXCR3,> 10 µM
same,IC50,CCR3,> 10 µM
same,IC50,CCR9,> 10 µM
same,IC50,CXCR1,> 10 µM
same,IC50,CXCR2,> 10 µM
same,IC50,C3aR,> 10 µM
same,IC50,CCR10,> 10 µM
same,IC50,C5aR,> 10 µM
same,UACR reduction vs vehicle,"[5]; 5/6 nephrectomy model (Example 7, FIG. 8), week one",64.8%
same,UAER,"[5]; 5/6 nephrectomy model (Table 3), Week 1, Compound 1 90 mg/kg, RAAS Blocker 5 mg/kg","15.68, p = 0.30 mg/day"
same,UAER,"[5]; 5/6 nephrectomy model (Table 3), Week 2, Compound 1 90 mg/kg, RAAS Blocker 5 mg/kg","6.72, p = 0.07 mg/day"
same,UAER,"[5]; 5/6 nephrectomy model (Table 3), Week 3, Compound 1 90 mg/kg, RAAS Blocker 5 mg/kg","11.75, p = 0.001 mg/day"
same,UAER,"[5]; 5/6 nephrectomy model, comparison with ET1/AT2 dual inhibitor (Table 4), Week 1","7.1, p = 0.07 mg/day"
same,UAER,"[5]; 5/6 nephrectomy model, comparison with ET1/AT2 dual inhibitor (Table 4), Week 2","11.0, p = 0.1 mg/day"
same,UAER,"[5]; 5/6 nephrectomy model, comparison with ET1/AT2 dual inhibitor (Table 4), Week 4","2.8, p = 0.02 mg/day"
same,"UACR, in words","[5]; 5/6 nephrectomy model, four-week study",markedly reduced
same,reduction in UACR,"[5]; 5/6 nephrectomy model, week four",57%
same,reduction in UACR,"[5]; 5/6 nephrectomy model, week three",72%
same,"creatinine and BUN, in words","[5]; 5/6 nephrectomy model, with respect to vehicle control, four-week time point",marked reductions
same,concentration at 24 h,[6],~3.5 µM
same,IC50,CXCR4,> 10 µM
